Data published in patent US11865091B2, “Supporting immunomodulatory agent” (Flexopharm Brain GMBH & Co. KG, priority 2014, dated 2024).
Entries after “also recorded” stand apart in the source; their conditions may differ.

What was measured:
[1] = tested on: CD4+CD25+ Foxp3 cells; test: Regulatory T cell levels in mouse EAE model; assay type: in vivo; conditions: for proliferation and amount of regulatory T cells: in the intestines and blood
Description: FIG. 4: is a graph showing the effect of propionic acid diet initiated at the time of disease induction (DI) compared to a control group on levels of CD4+CD25+ Foxp3 cells in mouse EAE model.
FIG. 5 is a graph showing the effect of lauric acid diet (250 μM and 500 μM) initiated at the time of disease induction (DI) compared to a control group on levels of CD4+CD25+ Foxp3 cells in mouse EAE model.
(§1) Mice kept under standardized conditions were fed on a normal diet enriched with long-chain fatty acids (30.9% lauric acid) and additionally with 200 μl of propionate daily administered orally. The propionate was given either at the time of disease induction (DI) or at the onset of the disease (OD).
(§2) For the induction of EAE the mice were anesthetized and administered two subcutaneous injections of a 50 μl emulsion applied to the left and right tail basis and comprising a total of 200 μg MOG35-55 (myelin oligodendrocyte glycoprotein) and 200 μg Freund's adjuvant (CFA) with 4 mg/ml of M. tuberculosis. Pertussistoxin ([…]) was given intraperitoneally on day 0 and 2 after the induction. The clinical assessment took place on a daily basis using a 5-point scale (SEM). The assessment was as follows: • 0=normal • 1=Tail paralysis impairing raising • 2=Gait ataxia • 3=Paraparesis of hind legs • 4=Tetraparesis • 5=Death Mice showing SEM 4 or 5 were excluded.

[2] = tested on: intestinal microbiota; test: Composition of the intestinal microbiome; assay type: in vivo, mice; conditions: for effect on normal intestinal microbiota / number of bacteria degrading propionate and butyrate: intestinal microbiome
From the text: The inventive acids, in particular propionic acid and butyric acid have an influence on the bowel physiology and the microbiome present there. In this way, they have an impact on the composition of the microbiome.

[3] = tested on: TH1 and TH17 cells; test: Th1/Th17 cells in small intestine and central nervous system, EAE model; assay type: in vivo; conditions: mouse EAE, lauric acid enriched diet
From the text: (§3) Moreover, the aliphatic chain length of the carboxylic acids also affects the […] autoimmunity as well as the regulatory response of Treg in an in vivo mouse model.

[4] = tested on: TGFβ; test: Gene expression profiling of signature cytokines in EAE mice; assay type: in vivo, mouse; conditions: EAE mice fed propionic acid
From the text: as §3

[5] = tested on: Foxp3; test: as above; assay type: in vivo, mouse; conditions: EAE mice fed propionic acid
From the text: as §3

[6] = tested on: IL-10; test: as above; assay type: in vivo, mouse; conditions: EAE mice fed propionic acid
From the text: as §3

[7] = tested on: experimental autoimmune encephalomyelitis (EAE); test: Mouse EAE model, daily clinical assessment on 5-point scale (SEM); assay type: in vivo
Description: as §1, §2

[8] = tested on: experimental autoimmune encephalomyelitis (EAE); test: Mouse EAE model: relative axonal density, demyelination of white matter, CD3+ cells; assay type: in vivo; conditions: versus control group, FIG. 3
Description: FIG. 3: is a graph showing the effect of propionic acid diet initiated at the time of disease induction (DI) or at the time of onset of symptoms (OD) compared to a diet control group on relative axonal density, demyelination in the white matter, and CD3+ cells in the mouse EAE model.
as §1, §2
The influence of propionic acid on the relative axonal density, the demyelination of the white matter, and the number of CD3+-cells is shown in FIG. 3.

[9] = tested on: adiponectin; test: Clinical study of sodium propionate, adiponectin levels; assay type: in vivo, human; conditions: 4 weeks after administration had been terminated, FIG. 6 column C
From the text: FIG. 6 is a graph showing the effect of administration of sodium propionate in a clinical study in ten patients on adiponectin levels.

CCCC(=O)O [butyric acid]
proliferation and amount of regulatory T cells [1]: positive effect
effect on normal intestinal microbiota [2]: only slightly affected
number of bacteria degrading propionate and butyrate [2]: increases significantly

CCCCCCCCCCCC(=O)O [lauric acid, reference compound]
concentration dependence of the percentage reduction of CD4+CD25+ Foxp3 cells ([1]; lauric acid 250 μM and 500 μM, FIG. 5): dependent on concentration
CD4+CD25+ Foxp3 cells ([1]; lauric acid 250 μM and 500 μM, versus control value, FIG. 5): reduction
number of Provotellaceae and some families of Phylum Bacteroidetes ([2]; mice): reduce significantly
TH1 and TH17 cells in the small intestine [3]: significant reduction
Th1/Th17 in the central nervous system [3]: accumulation

CCC(=O)O [propionic acid]
proliferation and amount of regulatory T cells [1]: positive effect
number of regulatory T cells (CD4+CD25+ Foxp3+ Treg) ([1]; mouse EAE, propionic acid at disease induction (DI), versus control group, FIG. 4): significant increase
effect on normal intestinal microbiota [2]: only slightly affected
number of bacteria degrading propionate and butyrate [2]: increases significantly
TGFβ gene expression [4]: increased values; also recorded: significant increase
Foxp3 gene expression [5]: increased values; also recorded: significant increase
IL-10 gene expression [6]: increased values; also recorded: significant increase
disease course versus control group ([7]; propionic acid given on the day of onset of disease (OD), FIG. 2): significantly less favorable disease course
disease course versus control group ([7]; propionic acid given prophylactically (at disease induction, DI)): significant improvement
demyelination of the white matter [8]: significant improvement
number of CD3+ cells [8]: significant improvement
relative axonal density [8]: significant improvement

CCC(=O)[O-].[Na+] [sodium propionate]
duration of the adiponectin effect [9]: lasts longer than the administration duration
